Values belong to the molecule of their own block, whether it stands above or below them. Where a SMILES comes first, the peptide text is derived from it. The star is where a group is joined. Ethynyl(2-Si(iPr)3) = CC(C)[Si](C#C*)(C(C)C)C(C)C
Key:
Format in all cases: physicochemical
[1] = Retention time in RP-HPLC as qualitative measure of lipophilicity; details: analytical RP-HPLC
Procedure: For example, the retention time of peptide 11 shifted from 5.8 to 13.6 min for 11 a and 20.2 min for 11 b (See SI). The partition coefficient (LogP) of product 11 a was determined to be 1.53 compared with −1.43 for 11.[24] […]
followed by dimethylformamide wash (4 x 3 mL). Fmoc groups were then removed by shaking the resin with 20% v/v piperidine in dimethylformamide at 400 rpm, over 5 minutes. This step was carried out twice. Next, washing steps were achieved with dimethylformamide (5 x 3 mL). Finally, resin was dried with dichloromethane (5 x 3 mL).
Peptide cleavage and deprotection: Peptides were deprotected and cleaved from the resin under reducing conditions, by treatment with 2.5% v/v water and 2.5% v/v triisopropylsilane (TIPS) in neat trifluoroacetic acid (5 mL). The resulting mixture was shaken for 2 hours at 400 rpm, at room temperature. The resin was removed by filtration and peptides were precipitated in cold diethyl ether (20 mL), followed by a 2 hours incubation at -20 °C. Peptides were pelleted by centrifugation at 4000 rpm, at 4 °C, for 5 minutes. […]
A. Fractions containing the desired peptide were lyophilized. The purity was assessed by analyzing a 10-20 mM peptide solution by RP-HPLC (HPLC gradient: 100% A to 100% B in 30 minutes. At the same time, low-resolution mass spectrometric measurements were also acquired. […]

[2] = Partition coefficient (LogP), octanol/water method
Text: [24] Determined using the octanol/water method according to: J. A.Arnott, S. L.Planey, Expert Opin. Drug Discovery 2012, 7, 863–875.
Calibration with 11a was achieved through the preparation of several samples of different concentrations and their analysis on RP HPLC. These analyses were repeated three times in order to obtain an average curve of calibration. The following linear regression was obtained: Y = 470.12 X + 284.02 and R = 0.9887, where Y is the absorption in mAUs -1 at 214 nm and X the concentration of 11a in mM.
Figure S3. calibration curve of 11a.
Calculation of Partition coefficient ( LogP)4
2.5 mg (4.0 µmol) 11a was dissolved in 1.7 mL octanol -H2O mixture (0.85 mL 1 -Octanol + 0.85 mL milli-Q H2O) in a 5 mL vial. In order to mix the layers, the vial was shaken on vertex for 1 min. Then the mixture was transferred to a separating funnel. The separating funnel was closed and left standing for 3 h to separate the organic and the H2O layer. Both layers were taken separately and submitted tonreverse phase HPLC. The concentration of both layers was determined by HPLC - […]
Amount of 11a in 1-octanol = 2.41 mg/mL
Amount of 11a in H2O = 0.09 mg/mL
Partition coefficient (P) = amount of 11a in 1-octanol/ amount of 11a in H2O […]
Following the same procedure for starting material 11: LogP = -1.53
4 J. R. Espinosa, C. R. Wand, C. Vega, E. Sanz, D. Frenkel, J. Chem. Phys. 2018, 149, 224501.
(1 picture or pasted object on this page, not shown here)

[3] = Cleavage of thioesters with hydroxylamine; details: HPLC
Text: The obtained thioalkynes constitute a new type of lipophilic compounds lacking the electrophilic carbonyl group present in natural palmitoylated peptides, which is required for their hydrolysis. In presence of trifluoroacetic acid (TFA), clean hydration to give thioesters was observed (Scheme 5 a). This hydration can be performed in a one pot protocol with silylated and alkylated alkynes on both small and larger peptides to give thioesters such as 11 aa–bb, 17 aa–bb, 18 aa and 23 aa–bb in 58–82 % yield. 11 bb, 17 bb and 23 bb are then natural palmitoylated products. […] Numerous enzymatic and chemical methods have been reported for the cleavage of palmitoyl groups on cysteine.[25] […] Nevertheless, treatment with a KF solution followed by hydroxylamine also allowed to cleave this thioester with 90 % conversion. Taken together, our work therefore gives access to lipophilic peptide derivatives modifiable/cleavable under different conditions, which can be exploited depending on the desired application.
Cleavage of palmitoylthioester of Ac-Trp-Met-Asn-Ser-Thr-Gly-Phe-Thr-Lys-Val-Cys-Gly-Ala-NH2 (17bb) A 1.5 mL vial was charged with 17bb (0.5 mg, […],1.0 equiv.) 70 µL 1M NH2OH with a small magnetic bar. The NH2OH solution was freshly prepared in Milli Q water. Then the reaction mixture was stirred for 4 h at rt. […]
Yield for 17 and disulfide quantitative (retention time 5.0). […]

[4] = Solubility in water of EBX reagents
[5] = shake-flask 1-octanol/milli-Q H2O (0.85 mL + 0.85 mL), 2.5 mg, vortexed 1 min, left standing 3 h, both layers by RP-HPLC-UV 214 nm

retention time in RP-HPLC ([1]; HPLC gradient Method 3 per SI): 5.8 min
Molecule: CC(=O)N[C@@H](C)C(=O)N[C@@H](CS)C(=O)NCC(=O)N[C@@H](Cc1ccccc1)C(N)=O [compound 11, Ac-Ala-Cys-Gly-Phe-NH2] (Ac-ACGF-NH2)

solubility in water [4]: 450 mg/mL
solubility in water ([4]; Supporting Information): 450 mg/mL
Molecule: C14H29-EBX-SO3M [4b]

More lines, now with the values behind:

Molecule: CC[C@H](C)[C@H](NC(=O)[C@H](Cc1ccccc1)NC(=O)[C@H](CSC#C[Si](C(C)C)(C(C)C)C(C)C)NC(=O)[C@@H](NC(=O)[C@H](CCC(N)=O)NC(=O)[C@H](CSC#C[Si](C(C)C)(C(C)C)C(C)C)NC(=O)[C@H](Cc1c[nH]cn1)NC(=O)[C@H](Cc1ccccc1)NC(C)=O)C(C)C)C(=O)N[C@H](C(N)=O)[C@@H](C)O [24a, Alkynylated (Phe32-Thr40) Ac-Phe-His-Cys-Gln-Val-Cys-Phe-Ile-Thr-NH2] (Ac-FHC(Ethynyl(2-Si(iPr)3))QVC(Ethynyl(2-Si(iPr)3))FIT-NH2)
retention time (HPLC-MS of reaction mixture) ([1]; SI, HPLC gradient Method 1): 19.7

Molecule: CC(=O)N[C@@H](C)C(=O)N[C@@H](CSC#C[Si](C(C)C)(C(C)C)C(C)C)C(=O)NCC(=O)N[C@@H](Cc1ccccc1)C(N)=O [11a] (Ac-AC(Ethynyl(2-Si(iPr)3))GF-NH2)
logP [2, 5]: 1.53
partition coefficient (LogP) [2, 5]: 1.43
Partition coefficient (P) = amount in 1-octanol / amount in H2O ([2]; shake-flask 1-octanol/milli-Q H2O, HPLC-UV 214 nm): 26.78

Molecule: silylthioester of H-Ala-Cys-Ala-Phe-Lys-Asp-NH2 [18aa]
cleavage of the thioester by hydroxylamine ([3]; 1 M NH2OH in Milli Q water, rt, 4 h): reacts only very slowly
conversion in thioester cleavage with KF and hydroxylamine ([3]; KF (28.7 equiv) and 1M NH2OH, 37 °C, 14 h): 90%

Molecule: K/Na-5-sulfonate TIPS-EBX-SO3M [4a]
increase of solubility in water compared to TIPS-EBX (1) ([4]; 4a vs 1, water): more than fifty fold
solubility in water [4]: 0.46 mg/mL
solubility in water ([4]; Supporting Information): 460 mg/mL
